Reference: PubChem BioAssay (NCI)
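Cultured in 96-well plates, cells were exposed to test compound for 48 hours across five concentrations. The concentration for 50% growth inhibition is given as GI50. TGI denotes the concentration required for complete inhibition of growth.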

What was measured:
Experiment in all cases: DTP human tumour cell line panel, 48 h
786-0 renal = system: 786-0 renal
A498 renal = system: A498 renal
A549 NSCLC = system: A549 NSCLC
ACHN renal = system: ACHN renal
BT-549 breast = system: BT-549 breast
CAKI-1 renal = system: CAKI-1 renal
CCRF-CEM leukemia = system: CCRF-CEM leukemia
COLO 205 colon = system: COLO 205 colon
DU-145 prostate = system: DU-145 prostate
EKVX NSCLC = system: EKVX NSCLC
HCC-2998 colon = system: HCC-2998 colon
HCT-116 colon = system: HCT-116 colon
HCT-15 colon = system: HCT-15 colon
HL-60(TB) leukemia = system: HL-60(TB) leukemia
HOP-62 NSCLC = system: HOP-62 NSCLC
HOP-92 NSCLC = system: HOP-92 NSCLC
HS 578T breast = system: HS 578T breast
HT29 colon = system: HT29 colon
IGROV1 ovarian = system: IGROV1 ovarian
K-562 leukemia = system: K-562 leukemia
KM12 colon = system: KM12 colon
LOX IMVI melanoma = system: LOX IMVI melanoma
M14 melanoma = system: M14 melanoma
MCF7 breast = system: MCF7 breast
MDA-MB-231 breast = system: MDA-MB-231 breast
MDA-MB-435 = system: MDA-MB-435
MOLT-4 leukemia = system: MOLT-4 leukemia
NCI-H23 lung = system: NCI-H23 lung
NCI-H460 lung = system: NCI-H460 lung
NCI-H522 lung = system: NCI-H522 lung
NCI/ADR-RES ovarian = system: NCI/ADR-RES ovarian
OVCAR-3 ovarian = system: OVCAR-3 ovarian
OVCAR-5 ovarian = system: OVCAR-5 ovarian
OVCAR-8 ovarian = system: OVCAR-8 ovarian
PC-3 prostate = system: PC-3 prostate
RPMI-8226 leukemia = system: RPMI-8226 leukemia
RXF 393 renal = system: RXF 393 renal
SF-268 CNS = system: SF-268 CNS
SF-295 CNS = system: SF-295 CNS
SF-539 CNS = system: SF-539 CNS
SK-MEL-2 melanoma = system: SK-MEL-2 melanoma
SK-MEL-28 melanoma = system: SK-MEL-28 melanoma
SK-MEL-5 melanoma = system: SK-MEL-5 melanoma
SK-OV-3 ovarian = system: SK-OV-3 ovarian
SN12C renal = system: SN12C renal
SNB-19 CNS = system: SNB-19 CNS
SNB-75 CNS = system: SNB-75 CNS
SR leukemia = system: SR leukemia
SW-620 colon = system: SW-620 colon
T-47D breast = system: T-47D breast
TK-10 renal = system: TK-10 renal
U251 CNS = system: U251 CNS
UACC-257 melanoma = system: UACC-257 melanoma
UACC-62 melanoma = system: UACC-62 melanoma
UO-31 renal = system: UO-31 renal

`O=C(CN(/C=C/C(=O)C(F)(F)F)c1ccc(Cl)cc1)c1ccccc1` gave a GI50 (786-0 renal) of 13.5 µM, a TGI (786-0 renal) of 31.3 µM and a GI50 (A498 renal) of 22 µM. For the same compound, the TGI (A498 renal) was 43.1 µM, the GI50 (A549 NSCLC) was 12 µM and the TGI (A549 NSCLC) was greater than 100 µM. It also gave a GI50 (ACHN renal) of 13.7 µM, a TGI (ACHN renal) of 28.9 µM and a GI50 (BT-549 breast) of 20.5 µM. For the same compound, the TGI (BT-549 breast) was 41.4 µM, the GI50 (CAKI-1 renal) was 0.933 µM and the TGI (CAKI-1 renal) was 22.8 µM. For the same compound, the GI50 (CCRF-CEM leukemia) was 8.8 µM, the TGI (CCRF-CEM leukemia) was 33.5 µM and the GI50 (COLO 205 colon) was 15.3 µM. For the same compound, the TGI (COLO 205 colon) was greater than 100 µM, the GI50 (DU-145 prostate) was 18 µM and the TGI (DU-145 prostate) was 43.4 µM. It also gave a GI50 (EKVX NSCLC) of 15.1 µM, a TGI (EKVX NSCLC) of 34.1 µM and a GI50 (HCC-2998 colon) of 7.93 µM. The TGI (HCC-2998 colon) was 21.1 µM, the GI50 (HCT-116 colon) was 11.6 µM and the TGI (HCT-116 colon) was 23.7 µM. The GI50 (HCT-15 colon) was 15.1 µM, the TGI (HCT-15 colon) was 38.7 µM and the GI50 (HL-60(TB) leukemia) was 17.3 µM. It also gave a TGI (HL-60(TB) leukemia) of 66.7 µM, a GI50 (HOP-62 NSCLC) of 11.4 µM and a TGI (HOP-62 NSCLC) of 24.5 µM. For the same compound, the GI50 (HOP-92 NSCLC) was 10.4 µM, the TGI (HOP-92 NSCLC) was 28.1 µM and the GI50 (HS 578T breast) was 24.3 µM. For the same compound, the TGI (HS 578T breast) was 68.1 µM, the GI50 (HT29 colon) was 25.8 µM and the TGI (HT29 colon) was greater than 100 µM. It also gave a GI50 (IGROV1 ovarian) of 0.303 µM, a TGI (IGROV1 ovarian) of 24.3 µM and a GI50 (K-562 leukemia) of 2.8 µM. For the same compound, the TGI (K-562 leukemia) was greater than 100 µM, the GI50 (KM12 colon) was 10.8 µM and the TGI (KM12 colon) was 36.6 µM. For the same compound, the GI50 (LOX IMVI melanoma) was 5.26 µM, the TGI (LOX IMVI melanoma) was 22.3 µM and the GI50 (M14 melanoma) was 10.6 µM. It also gave a TGI (M14 melanoma) of 22.9 µM, a GI50 (MCF7 breast) greater than 100 µM and a TGI (MCF7 breast) greater than 100 µM. For the same compound, the GI50 (MDA-MB-231 breast) was 15.8 µM, the TGI (MDA-MB-231 breast) was 33.8 µM and the GI50 (MDA-MB-435) was 10.8 µM. For the same compound, the TGI (MDA-MB-435) was 39 µM, the GI50 (MOLT-4 leukemia) was 39.7 µM and the TGI (MOLT-4 leukemia) was greater than 100 µM. The GI50 (NCI-H23 lung) was 8.75 µM, the TGI (NCI-H23 lung) was 27.2 µM and the GI50 (NCI-H460 lung) was 52.9 µM. The TGI (NCI-H460 lung) was greater than 100 µM, the GI50 (NCI-H522 lung) was 6.52 µM and the TGI (NCI-H522 lung) was 26.3 µM. It also gave a GI50 (NCI/ADR-RES ovarian) of 14.1 µM, a TGI (NCI/ADR-RES ovarian) of 30.3 µM and a GI50 (OVCAR-3 ovarian) of 9.15 µM. For the same compound, the TGI (OVCAR-3 ovarian) was 46.3 µM, the GI50 (OVCAR-5 ovarian) was 15.6 µM and the TGI (OVCAR-5 ovarian) was 40.7 µM. For the same compound, the GI50 (OVCAR-8 ovarian) was 44 µM, the TGI (OVCAR-8 ovarian) was greater than 100 µM and the GI50 (PC-3 prostate) was 17 µM. The TGI (PC-3 prostate) was 35.3 µM, the GI50 (RPMI-8226 leukemia) was 12.9 µM and the TGI (RPMI-8226 leukemia) was 89.3 µM. The GI50 (RXF 393 renal) was 21.7 µM, the TGI (RXF 393 renal) was 43.5 µM and the GI50 (SF-268 CNS) was greater than 100 µM. For the same compound, the TGI (SF-268 CNS) was greater than 100 µM, the GI50 (SF-295 CNS) was 12.1 µM and the TGI (SF-295 CNS) was 41.4 µM. The GI50 (SF-539 CNS) was 13.1 µM, the TGI (SF-539 CNS) was 27.8 µM and the GI50 (SK-MEL-2 melanoma) was 15.5 µM. It also gave a TGI (SK-MEL-2 melanoma) of 35.6 µM, a GI50 (SK-MEL-28 melanoma) of 17.3 µM and a TGI (SK-MEL-28 melanoma) of 37.5 µM. For the same compound, the GI50 (SK-MEL-5 melanoma) was 12.1 µM, the TGI (SK-MEL-5 melanoma) was 27.7 µM and the GI50 (SK-OV-3 ovarian) was 51.2 µM. For the same compound, the TGI (SK-OV-3 ovarian) was greater than 100 µM, the GI50 (SN12C renal) was 16 µM and the TGI (SN12C renal) was 34.2 µM. It also gave a GI50 (SNB-19 CNS) of 33 µM, a TGI (SNB-19 CNS) greater than 100 µM and a GI50 (SNB-75 CNS) of 12.9 µM. It also gave a TGI (SNB-75 CNS) of 41.1 µM, a GI50 (SR leukemia) of 14.8 µM and a TGI (SR leukemia) of 57 µM. For the same compound, the GI50 (SW-620 colon) was 14.6 µM, the TGI (SW-620 colon) was 62.1 µM and the GI50 (T-47D breast) was 4.08 µM. The TGI (T-47D breast) was greater than 100 µM, the GI50 (TK-10 renal) was 7.88 µM and the TGI (TK-10 renal) was 37.2 µM. The GI50 (U251 CNS) was 15.8 µM, the TGI (U251 CNS) was 30.8 µM and the GI50 (UACC-257 melanoma) was 14.5 µM. The TGI (UACC-257 melanoma) was 34.9 µM, the GI50 (UACC-62 melanoma) was 11.7 µM and the TGI (UACC-62 melanoma) was 26.4 µM. For the same compound, the GI50 (UO-31 renal) was 13.5 µM and the TGI (UO-31 renal) was 29.9 µM.
